# Molecular target: T1, Nitric oxide synthase, inducible (Mus musculus, UniProt P29477)
# T1 sequence (P29477 whole entry): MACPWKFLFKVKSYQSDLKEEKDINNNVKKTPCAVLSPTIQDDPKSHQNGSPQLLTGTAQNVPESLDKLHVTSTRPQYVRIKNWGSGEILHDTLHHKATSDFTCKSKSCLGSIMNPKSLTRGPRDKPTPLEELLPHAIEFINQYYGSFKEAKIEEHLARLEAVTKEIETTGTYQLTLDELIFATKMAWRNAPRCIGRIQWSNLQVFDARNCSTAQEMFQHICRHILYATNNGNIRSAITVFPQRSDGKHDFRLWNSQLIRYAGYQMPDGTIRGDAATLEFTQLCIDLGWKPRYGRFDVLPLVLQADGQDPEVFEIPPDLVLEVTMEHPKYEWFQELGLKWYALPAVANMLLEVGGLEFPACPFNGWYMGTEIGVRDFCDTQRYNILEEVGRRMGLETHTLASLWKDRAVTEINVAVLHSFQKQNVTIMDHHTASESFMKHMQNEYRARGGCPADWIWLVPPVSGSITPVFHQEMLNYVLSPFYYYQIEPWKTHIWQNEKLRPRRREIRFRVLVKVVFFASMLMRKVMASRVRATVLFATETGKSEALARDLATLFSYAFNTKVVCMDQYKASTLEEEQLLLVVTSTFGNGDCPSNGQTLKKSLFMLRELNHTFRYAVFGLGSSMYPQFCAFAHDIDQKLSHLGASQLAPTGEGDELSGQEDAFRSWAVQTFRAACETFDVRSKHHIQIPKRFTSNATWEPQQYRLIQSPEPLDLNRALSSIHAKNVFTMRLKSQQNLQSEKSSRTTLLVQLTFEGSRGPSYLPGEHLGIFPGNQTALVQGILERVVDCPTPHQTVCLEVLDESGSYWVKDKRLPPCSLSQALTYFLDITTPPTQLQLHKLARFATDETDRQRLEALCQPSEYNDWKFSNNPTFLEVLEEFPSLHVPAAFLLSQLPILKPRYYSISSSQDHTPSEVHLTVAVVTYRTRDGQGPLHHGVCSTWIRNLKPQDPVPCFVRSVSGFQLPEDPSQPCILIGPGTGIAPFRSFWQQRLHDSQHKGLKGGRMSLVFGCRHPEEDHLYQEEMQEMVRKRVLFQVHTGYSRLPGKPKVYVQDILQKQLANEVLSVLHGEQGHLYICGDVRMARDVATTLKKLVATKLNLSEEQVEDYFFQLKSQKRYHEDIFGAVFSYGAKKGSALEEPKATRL
row,Compound,Ki [µM]
1,Nc1cccc(C[C@H]2CNC[C@H]2N[C@@H]2CCN(Cc3ccccc3)C2)n1 (racemic),425
2,Nc1cccc(C[C@H]2CNC[C@H]2NC[C@@H](N)Cc2ccccc2)n1 (racemic),297
3,Nc1cccc(C[C@H]2CNC[C@H]2N[C@H]2CCN(Cc3ccccc3)C2)n1 (racemic),222
4,Nc1cccc(C[C@H]2CNC[C@H]2NC[C@H](N)Cc2ccccc2)n1 (racemic),238
5,Nc1cccc(C[C@H]2CNC[C@H]2N[C@@H]2CCNC2)n1 (racemic),200
6,Cc1cc(N)nc(C[C@H]2CNC[C@H]2N(C)CCN(C)CCc2cccc(F)c2)c1 (racemic),56.6
7,CC(=O)[C@H]1CNC[C@@H]1NC(=O)[C@@H](N)CCCNC(=N)N[N+](=O)[O-],5.76
8,Nc1cccc(C[C@H]2CNC[C@H]2N[C@H]2CCNC2)n1 (racemic),174
9,Cc1cc(C[C@H]2CNC[C@H]2NCCNCCc2cccc(F)c2)cc(N)n1 (racemic),10.6
10,CC(=O)[C@@H]1C[C@@H](NC(=O)[C@@H](N)CCCNC(=N)N[N+](=O)[O-])CN1,29

# Next, values leading:
row,Ki [µM],Compound
1,3.56,Cc1cc(N)nc(C[C@H]2CNC[C@H]2NCCNCc2ccc(Cl)c(Cl)c2)c1 (racemic)
2,7.7,Cc1cc(N)nc(C[C@H]2CNC[C@H]2NCCNCc2ccc(Cl)cc2Cl)c1 (racemic)
3,14.1,Cc1cc(N)nc(C[C@H]2CNC[C@H]2NCCNCc2ccc(C(F)(F)F)cc2)c1 (racemic)
4,12.2,Cc1cc(N)nc(C[C@H]2CNC[C@H]2NC[C@H](C)NCc2ccc(Cl)cc2)c1 (racemic)
5,232,Cc1cc(C[C@H]2CNC[C@H]2NCCNCc2ccc(Cl)cc2)cc(N)n1 (racemic)
6,38.2,Cc1cc(N)nc(C[C@H]2CNC[C@H]2N(C)CCNCCc2cccc(F)c2)c1 (racemic)
7,4.6,Cc1cc(N)nc(C[C@H]2CNC[C@H]2NCCNCCc2ccc(F)cc2)c1 (racemic)
8,9.01,Cc1cccc(CNCCN[C@@H]2CNC[C@@H]2Cc2cc(C)cc(N)n2)c1 (racemic)
9,195,CN(C)CCN[C@@H]1CNC[C@@H]1Cc1cccc(N)n1 (racemic)
10,7.97,Cc1cc(N)nc(C[C@H]2CNC[C@H]2NCCNCc2ccc(F)cc2)c1 (racemic)
11,161,Nc1cccc(C[C@H]2CNC[C@H]2NCCNCc2ccccc2)n1 (racemic)

# Molecular target: Nitric oxide synthase 1 (Rattus norvegicus, UniProt P29476)
# Sequence (P29476 whole entry): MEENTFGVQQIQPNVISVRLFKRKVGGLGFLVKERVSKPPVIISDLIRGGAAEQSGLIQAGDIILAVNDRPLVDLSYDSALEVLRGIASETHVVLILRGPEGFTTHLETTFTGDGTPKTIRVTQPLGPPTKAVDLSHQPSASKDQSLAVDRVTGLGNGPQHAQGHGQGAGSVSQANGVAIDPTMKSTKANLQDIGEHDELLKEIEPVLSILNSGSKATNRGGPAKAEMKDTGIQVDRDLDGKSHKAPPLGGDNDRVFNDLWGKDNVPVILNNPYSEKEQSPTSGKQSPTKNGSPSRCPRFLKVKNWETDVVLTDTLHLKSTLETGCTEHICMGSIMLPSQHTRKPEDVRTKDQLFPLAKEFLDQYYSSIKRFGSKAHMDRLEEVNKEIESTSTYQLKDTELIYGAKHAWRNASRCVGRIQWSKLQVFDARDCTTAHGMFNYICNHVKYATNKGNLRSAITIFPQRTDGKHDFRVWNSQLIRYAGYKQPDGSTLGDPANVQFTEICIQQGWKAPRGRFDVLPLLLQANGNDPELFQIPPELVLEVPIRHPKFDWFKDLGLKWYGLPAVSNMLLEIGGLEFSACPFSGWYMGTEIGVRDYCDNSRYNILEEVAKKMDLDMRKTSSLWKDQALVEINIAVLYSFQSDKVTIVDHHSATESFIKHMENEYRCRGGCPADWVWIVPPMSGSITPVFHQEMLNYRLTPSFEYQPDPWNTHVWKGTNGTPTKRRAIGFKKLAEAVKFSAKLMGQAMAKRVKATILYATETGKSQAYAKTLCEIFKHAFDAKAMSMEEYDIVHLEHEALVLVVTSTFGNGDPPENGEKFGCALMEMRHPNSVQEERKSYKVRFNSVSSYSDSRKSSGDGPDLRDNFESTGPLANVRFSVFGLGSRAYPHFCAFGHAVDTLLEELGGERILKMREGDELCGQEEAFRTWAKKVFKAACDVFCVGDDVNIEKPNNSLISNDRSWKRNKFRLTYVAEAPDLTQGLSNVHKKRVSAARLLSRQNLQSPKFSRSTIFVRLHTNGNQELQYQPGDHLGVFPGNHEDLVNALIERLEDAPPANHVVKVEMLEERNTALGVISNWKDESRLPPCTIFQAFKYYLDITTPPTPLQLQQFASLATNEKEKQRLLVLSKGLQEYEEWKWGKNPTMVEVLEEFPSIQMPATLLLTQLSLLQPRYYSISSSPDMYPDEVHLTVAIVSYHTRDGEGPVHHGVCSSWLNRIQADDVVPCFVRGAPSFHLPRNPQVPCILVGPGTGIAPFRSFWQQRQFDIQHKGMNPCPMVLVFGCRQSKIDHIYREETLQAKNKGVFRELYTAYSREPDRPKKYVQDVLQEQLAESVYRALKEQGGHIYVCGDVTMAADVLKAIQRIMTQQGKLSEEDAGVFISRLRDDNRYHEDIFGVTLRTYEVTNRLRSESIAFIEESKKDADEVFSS
row,Compound,Ki [µM]
1,Nc1cccc(C[C@H]2CNC[C@H]2N[C@@H]2CCN(Cc3ccccc3)C2)n1 (racemic),2.74
2,Nc1cccc(C[C@H]2CNC[C@H]2NC[C@@H](N)Cc2ccccc2)n1 (racemic),2.3
3,Nc1cccc(C[C@H]2CNC[C@H]2N[C@H]2CCN(Cc3ccccc3)C2)n1 (racemic),3.34
4,Nc1cccc(C[C@H]2CNC[C@H]2NC[C@H](N)Cc2ccccc2)n1 (racemic),2.42
5,Nc1cccc(C[C@H]2CNC[C@H]2N[C@@H]2CCNC2)n1 (racemic),1.36
6,Cc1cc(N)nc(C[C@H]2CNC[C@H]2N(C)CCN(C)CCc2cccc(F)c2)c1 (racemic),1.21
7,CC(=O)[C@H]1CNC[C@@H]1NC(=O)[C@@H](N)CCCNC(=N)N[N+](=O)[O-],0.087
8,Nc1cccc(C[C@H]2CNC[C@H]2N[C@H]2CCNC2)n1 (racemic),1.26
9,Cc1cc(C[C@H]2CNC[C@H]2NCCNCCc2cccc(F)c2)cc(N)n1 (racemic),0.551
10,CC(=O)[C@@H]1C[C@@H](NC(=O)[C@@H](N)CCCNC(=N)N[N+](=O)[O-])CN1,0.1

# The next lines start with the values.
row,Ki [µM],Compound
1,0.157,Cc1cc(N)nc(C[C@H]2CNC[C@H]2NCCNCc2ccc(Cl)c(Cl)c2)c1 (racemic)
2,0.11,Cc1cc(N)nc(C[C@H]2CNC[C@H]2NCCNCc2ccc(Cl)cc2Cl)c1 (racemic)
3,0.197,Cc1cc(N)nc(C[C@H]2CNC[C@H]2NCCNCc2ccc(C(F)(F)F)cc2)c1 (racemic)
4,0.136,Cc1cc(N)nc(C[C@H]2CNC[C@H]2NC[C@H](C)NCc2ccc(Cl)cc2)c1 (racemic)
5,18.8,Cc1cc(C[C@H]2CNC[C@H]2NCCNCc2ccc(Cl)cc2)cc(N)n1 (racemic)
6,0.326,Cc1cc(N)nc(C[C@H]2CNC[C@H]2N(C)CCNCCc2cccc(F)c2)c1 (racemic)
7,0.027,Cc1cc(N)nc(C[C@H]2CNC[C@H]2NCCNCCc2ccc(F)cc2)c1 (racemic)
8,0.159,Cc1cccc(CNCCN[C@@H]2CNC[C@@H]2Cc2cc(C)cc(N)n2)c1 (racemic)
9,3.33,CN(C)CCN[C@@H]1CNC[C@@H]1Cc1cccc(N)n1 (racemic)
10,0.206,Cc1cc(N)nc(C[C@H]2CNC[C@H]2NCCNCc2cccc(C(F)(F)F)c2)c1 (racemic)
11,0.144,Cc1cc(N)nc(C[C@H]2CNC[C@H]2NCCNCc2ccc(F)cc2)c1 (racemic)
12,1.18,Nc1cccc(C[C@H]2CNC[C@H]2NCCNCc2ccccc2)n1 (racemic)

# Molecular target: T2, Nitric oxide synthase 3 (Bos taurus, UniProt P29473)
# T2 sequence (P29473 whole entry): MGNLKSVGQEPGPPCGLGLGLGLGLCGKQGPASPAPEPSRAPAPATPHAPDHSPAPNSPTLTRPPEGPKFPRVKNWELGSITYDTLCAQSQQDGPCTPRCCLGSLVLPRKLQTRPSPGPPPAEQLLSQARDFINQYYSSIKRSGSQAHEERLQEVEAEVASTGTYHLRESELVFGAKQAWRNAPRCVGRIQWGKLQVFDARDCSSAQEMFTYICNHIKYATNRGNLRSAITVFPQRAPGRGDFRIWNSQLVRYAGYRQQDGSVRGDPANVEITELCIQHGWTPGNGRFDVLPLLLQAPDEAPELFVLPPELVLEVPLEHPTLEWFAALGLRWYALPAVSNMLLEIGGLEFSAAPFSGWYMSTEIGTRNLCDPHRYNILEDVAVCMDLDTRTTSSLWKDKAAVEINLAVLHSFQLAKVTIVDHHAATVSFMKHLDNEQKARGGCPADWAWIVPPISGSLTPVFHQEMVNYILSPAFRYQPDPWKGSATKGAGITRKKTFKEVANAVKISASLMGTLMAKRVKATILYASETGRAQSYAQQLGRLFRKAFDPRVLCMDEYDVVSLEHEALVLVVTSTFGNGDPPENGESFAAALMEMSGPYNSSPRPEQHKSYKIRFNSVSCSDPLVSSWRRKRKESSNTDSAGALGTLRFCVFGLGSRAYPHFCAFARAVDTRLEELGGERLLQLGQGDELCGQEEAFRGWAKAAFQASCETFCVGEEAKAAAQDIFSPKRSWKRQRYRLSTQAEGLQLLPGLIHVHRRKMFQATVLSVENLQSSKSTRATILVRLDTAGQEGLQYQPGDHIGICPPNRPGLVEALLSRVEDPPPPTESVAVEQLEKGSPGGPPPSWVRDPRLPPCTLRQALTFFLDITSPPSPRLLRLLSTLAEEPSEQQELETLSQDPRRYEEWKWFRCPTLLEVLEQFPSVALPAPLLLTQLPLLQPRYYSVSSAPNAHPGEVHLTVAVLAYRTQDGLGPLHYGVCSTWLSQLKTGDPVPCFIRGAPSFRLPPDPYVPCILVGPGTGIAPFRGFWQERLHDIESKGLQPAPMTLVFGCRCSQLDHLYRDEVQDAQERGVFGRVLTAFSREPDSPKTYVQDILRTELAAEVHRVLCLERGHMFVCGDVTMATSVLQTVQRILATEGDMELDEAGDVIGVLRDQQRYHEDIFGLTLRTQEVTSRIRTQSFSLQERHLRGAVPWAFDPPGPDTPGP
row,Compound,Ki [µM]
1,Nc1cccc(C[C@H]2CNC[C@H]2N[C@@H]2CCN(Cc3ccccc3)C2)n1 (racemic),181
2,Nc1cccc(C[C@H]2CNC[C@H]2NC[C@@H](N)Cc2ccccc2)n1 (racemic),1450
3,Nc1cccc(C[C@H]2CNC[C@H]2N[C@H]2CCN(Cc3ccccc3)C2)n1 (racemic),108
4,Nc1cccc(C[C@H]2CNC[C@H]2NC[C@H](N)Cc2ccccc2)n1 (racemic),1450
5,Nc1cccc(C[C@H]2CNC[C@H]2N[C@@H]2CCNC2)n1 (racemic),424
6,Cc1cc(N)nc(C[C@H]2CNC[C@H]2N(C)CCN(C)CCc2cccc(F)c2)c1 (racemic),48.9
7,CC(=O)[C@H]1CNC[C@@H]1NC(=O)[C@@H](N)CCCNC(=N)N[N+](=O)[O-],200
8,Nc1cccc(C[C@H]2CNC[C@H]2N[C@H]2CCNC2)n1 (racemic),243
9,Cc1cc(C[C@H]2CNC[C@H]2NCCNCCc2cccc(F)c2)cc(N)n1 (racemic),164
10,CC(=O)[C@@H]1C[C@@H](NC(=O)[C@@H](N)CCCNC(=N)N[N+](=O)[O-])CN1,128

# The remaining lines, values ahead:
row,Ki [µM],Compound
1,41,Cc1cc(N)nc(C[C@H]2CNC[C@H]2NCCNCc2ccc(Cl)c(Cl)c2)c1 (racemic)
2,30,Cc1cc(N)nc(C[C@H]2CNC[C@H]2NCCNCc2ccc(Cl)cc2Cl)c1 (racemic)
3,84,Cc1cc(N)nc(C[C@H]2CNC[C@H]2NCCNCc2ccc(C(F)(F)F)cc2)c1 (racemic)
4,40,Cc1cc(N)nc(C[C@H]2CNC[C@H]2NC[C@H](C)NCc2ccc(Cl)cc2)c1 (racemic)
5,141,Cc1cc(C[C@H]2CNC[C@H]2NCCNCc2ccc(Cl)cc2)cc(N)n1 (racemic)
6,92.4,Cc1cc(N)nc(C[C@H]2CNC[C@H]2N(C)CCNCCc2cccc(F)c2)c1 (racemic)
7,18,Cc1cc(N)nc(C[C@H]2CNC[C@H]2NCCNCCc2ccc(F)cc2)c1 (racemic)
8,72,Cc1cccc(CNCCN[C@@H]2CNC[C@@H]2Cc2cc(C)cc(N)n2)c1 (racemic)
9,125,Cc1cc(N)nc(C[C@H]2CNC[C@H]2N(C)CCNCc2ccc(Cl)cc2)c1 (racemic)
10,140,CN(C)CCN[C@@H]1CNC[C@@H]1Cc1cccc(N)n1 (racemic)
11,130,Cc1cc(N)nc(C[C@H]2CNC[C@H]2NCCNCc2ccc(F)cc2)c1 (racemic)
12,1450,Nc1cccc(C[C@H]2CNC[C@H]2NCCNCc2ccccc2)n1 (racemic)
